For the test, the system named is L1210 leukemia ip in BDF1 mice, survival T/C. The experiment in a line: NCI In Vivo Anticancer Drug Screen. Data for tumor model L1210 Leukemia (intraperitoneal) in B6D2F1 (BDF1) mice. The note with it: endpoint: mean survival time, higher = longer survival. Summed up: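 Value reflects the ratio of survival in compound-treated mice to survival in vehicle-treated controls, with both groups carrying the same transplanted tumor.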

The mark [1] stands for this setting: dose: 50.0 mg/kg/injection, schedule: Q01DX009 (ip), vehicle: saline with Tween-80.
Setting [2] is: dose: 100.0 mg/kg/injection, schedule: Q01DX001 (ip), vehicle: saline.
Setting [3] is: dose: 100.0 mg/kg/injection, schedule: Q01DX009 (ip), vehicle: saline with Tween-80.
Where [4] appears, read: dose: 200.0 mg/kg/injection, schedule: Q01DX001 (ip), vehicle: saline.
The mark [5] stands for this setting: dose: 200.0 mg/kg/injection, schedule: Q01DX009 (ip), vehicle: saline with Tween-80.
The mark [6] stands for this setting: dose: 400.0 mg/kg/injection, schedule: Q01DX001 (ip), vehicle: saline.
The mark [7] stands for this setting: dose: 100.0 mg/kg/injection, schedule: Q01DX009 (ip), vehicle: saline.
Setting [8] is: dose: 100.0 mg/kg/injection, schedule: Q04DX003 (ip), vehicle: saline.
The mark [9] stands for this setting: dose: 200.0 mg/kg/injection, schedule: Q01DX009 (ip), vehicle: saline.
The mark [10] stands for this setting: dose: 200.0 mg/kg/injection, schedule: Q04DX003 (ip), vehicle: saline.
Setting [11] is: dose: 400.0 mg/kg/injection, schedule: Q04DX003 (ip), vehicle: saline.
Where [12] appears, read: dose: 100.0 mg/kg/injection, schedule: Q04DX003 (ip), vehicle: saline with Tween-80.
Setting [13] is: dose: 200.0 mg/kg/injection, schedule: Q04DX003 (ip), vehicle: saline with Tween-80.
Where [14] appears, read: dose: 400.0 mg/kg/injection, schedule: Q04DX002 (ip), vehicle: saline with Tween-80.
Where [15] appears, read: dose: 400.0 mg/kg/injection, schedule: Q04DX003 (ip), vehicle: saline with Tween-80.
The mark [16] stands for this setting: dose: 100.0 mg/kg/injection, schedule: Q04DX003 (ip), vehicle: Klucel (hydroxypropylcellulose) (HPC).
The mark [17] stands for this setting: dose: 200.0 mg/kg/injection, schedule: Q04DX003 (ip), vehicle: Klucel (hydroxypropylcellulose) (HPC).
The mark [18] stands for this setting: dose: 50.0 mg/kg/injection, schedule: Q04DX003 (ip), vehicle: saline.

Values joined by “and” are separate entries in the source; they are usually repeats but may differ in a detail not shown here. Equal values may be shown once. Toxic doses and inconclusive results are not listed.

Take `C(=C\c1ccc2ccccc2n1)/c1ccccc1`: the T/C is, setting by setting: under setting [1], 119 % of control; under setting [2], 103 % of control; under setting [3], 94 % of control; under setting [4], 106 % of control; under setting [5], 109 % of control; under setting [6], 109 % of control.

Regarding `N=C(N)c1ccc(OCCCCCCOc2ccc(C(=N)N)cc2)cc1`, the T/C runs as follows: (dose: 5.0 mg/kg/injection, schedule: Q01DX001 (ip), vehicle: saline) 100 % of control; (dose: 10.0 mg/kg/injection, schedule: Q01DX001 (ip), vehicle: saline) 100 % of control; (dose: 20.0 mg/kg/injection, schedule: Q01DX001 (ip), vehicle: saline) 103 % of control; (dose: 40.0 mg/kg/injection, schedule: Q01DX001 (ip), vehicle: saline) 101 % of control; (dose: 80.0 mg/kg/injection, schedule: Q01DX001 (ip), vehicle: saline) 92 % of control.

In the case of `Cc1ccc2cccc3c2c1S(=O)(=O)c1cccc2cccc(c12)C3`, the T/C runs as follows: under setting [2], 98 % of control; under setting [4], 104 % of control; under setting [6], 93 % of control.

With `CC(N)C(=O)NCC(=O)NCC(=O)O` (stereo unspecified), the T/C is, setting by setting: under setting [7], 103 % of control; under setting [8], 100 % of control; under setting [9], 96 % of control; under setting [10], 96 % of control; (dose: 400.0 mg/kg/injection, schedule: Q01DX009 (ip), vehicle: saline) 98 % of control; under setting [11], 94 % of control.

Regarding `COc1cc([N+](=O)[O-])ccc1NC(=O)N(C1CCCCC1)C1CCCCC1`, the T/C under setting [1] is 100 % of control and 106 % of control; the T/C (dose: 50.0 mg/kg/injection, schedule: Q04DX002 (ip), vehicle: saline with Tween-80) is 90 % of control; the T/C (dose: 100.0 mg/kg/injection, schedule: Q01DX001 (ip), vehicle: saline with Tween-80) was 95 % of control; the T/C under setting [3] is 96 % of control and 108 % of control; the T/C (dose: 100.0 mg/kg/injection, schedule: Q04DX002 (ip), vehicle: saline with Tween-80) was 93 % of control and 99 % of control and 105 % of control; the T/C under setting [12] was 108 % of control. Besides, the T/C (dose: 200.0 mg/kg/injection, schedule: Q01DX001 (ip), vehicle: saline with Tween-80) was 91 % of control; the T/C under setting [5] is 100 % of control and 104 % of control; the T/C (dose: 200.0 mg/kg/injection, schedule: Q04DX002 (ip), vehicle: saline with Tween-80) is 89 % of control; the T/C under setting [13] was 106 % of control; the T/C (dose: 400.0 mg/kg/injection, schedule: Q01DX001 (ip), vehicle: saline with Tween-80) was 91 % of control; the T/C (dose: 400.0 mg/kg/injection, schedule: Q01DX009 (ip), vehicle: saline with Tween-80) was 108 % of control and 111 % of control. Besides, the T/C was 93 % of control and 97 % of control and 99 % of control under setting [14]; 104 % of control under setting [15].

Turning to `O=[N+]([O-])c1cc(F)c(F)cc1F`, the T/C is 98 % of control under setting [16] and 107 % of control under setting [17].

Take `CCCCCCCC1CCC(=O)O1` (stereo unspecified): the T/C by setting is: under setting [18], 103 % of control; under setting [2], 95 % of control; under setting [8], 105 % of control; under setting [4], 98 % of control; under setting [10], 97 % of control; under setting [6], 100 % of control.

Consider `C=CCNC(=O)SCCC(=O)O`, for which the T/C under setting [2] was 93 % of control, the T/C under setting [4] is 100 % of control and the T/C under setting [6] is 102 % of control.

`C=CCNc1ccc(C)cc1`: the T/C is, setting by setting: (dose: 50.0 mg/kg/injection, schedule: Q01DX009 (ip), vehicle: other) 92 % of control; (dose: 100.0 mg/kg/injection, schedule: Q01DX009 (ip), vehicle: other) 104 % of control; (dose: 100.0 mg/kg/injection, schedule: Q04DX003 (ip), vehicle: other) 100 % of control; (dose: 200.0 mg/kg/injection, schedule: Q04DX003 (ip), vehicle: other) 109 % of control.

With `NC(=O)N/N=C(\CBr)c1ccc([N+](=O)[O-])cc1`, the T/C under setting [8] is 96 % of control, the T/C under setting [10] was 89 % of control and the T/C under setting [11] was 91 % of control.

As for `CCCCNP(=O)(OCC)OCC`, the T/C (dose: 12.5 mg/kg/injection, schedule: Q01DX009 (ip), vehicle: saline) was 91 % of control; the T/C (dose: 12.5 mg/kg/injection, schedule: Q04DX003 (ip), vehicle: saline) was 101 % of control; the T/C (dose: 25.0 mg/kg/injection, schedule: Q01DX009 (ip), vehicle: saline) was 104 % of control; the T/C (dose: 25.0 mg/kg/injection, schedule: Q04DX003 (ip), vehicle: saline) is 113 % of control; the T/C (dose: 50.0 mg/kg/injection, schedule: Q01DX009 (ip), vehicle: saline) was 104 % of control; the T/C under setting [18] is 101 % of control. Also, the T/C under setting [7] is 109 % of control, the T/C under setting [8] is 101 % of control, the T/C under setting [9] is 96 % of control and the T/C under setting [10] was 101 % of control.

`CCOC(=O)C(Cc1ccc(O)c(N(CCO)CCO)c1)N1C(=O)c2ccccc2C1=O` (stereo unspecified): the T/C is 101 % of control under setting [2] and 112 % of control under setting [4].

Consider `CCC1([N+](=O)[O-])COP(=O)(N2CC2)OC1` (stereo unspecified), for which the T/C runs as follows: (dose: 100.0 mg/kg/injection, schedule: Q01DX001 (ip), vehicle: carboxymethylcellulose (CMC)) 106 % of control; (dose: 200.0 mg/kg/injection, schedule: Q01DX001 (ip), vehicle: carboxymethylcellulose (CMC)) 116 % of control.

For the compound `Cc1ccc(S(=O)(=O)CC(=O)NC(C)C)cc1`, the T/C is 100 % of control under setting [12], 110 % of control under setting [13] and 97 % of control under setting [15].

Regarding `CS(=O)(=O)Nc1ccc(Nc2c3ccccc3nc3cc(Cl)ccc23)cc1`, the T/C is, setting by setting: (dose: 10.0 mg/kg/injection, schedule: Q01DX009 (sc), vehicle: saline) 118 % of control; (dose: 20.0 mg/kg/injection, schedule: Q01DX009 (sc), vehicle: saline) 113 % of control; (dose: 133.0 mg/kg/injection, schedule: Q04DX003 (ip), vehicle: saline with Tween-80) 176 % of control; under setting [13], 103 % of control; (dose: 300.0 mg/kg/injection, schedule: Q04DX003 (ip), vehicle: saline with Tween-80) 113 % of control.

Regarding `CC1(C)N=C(N)N=C(N)N1c1cccc(CO)c1`, the T/C is, setting by setting: under setting [2], 96 % of control; under setting [4], 105 % of control.

For the compound `NCC(c1ccccc1)C(Cc1ccccc1)[N+](=O)[O-]` (stereo unspecified), the T/C reads like this: (dose: 75.0 mg/kg/injection, schedule: Q01DX001 (ip), vehicle: other) 115 % of control; (dose: 150.0 mg/kg/injection, schedule: Q01DX001 (ip), vehicle: other) 104 % of control.

As for `c1ccc(Nc2ccc(C(c3ccccc3)(c3ccccc3)c3ccccc3)cc2)cc1`, the T/C runs as follows: (dose: 25.6 mg/kg/injection, schedule: Q04DX002 (ip), vehicle: saline with Tween-80) 97 % of control; (dose: 64.0 mg/kg/injection, schedule: Q04DX002 (ip), vehicle: saline with Tween-80) 94 % of control; (dose: 160.0 mg/kg/injection, schedule: Q04DX002 (ip), vehicle: saline with Tween-80) 97 % of control; under setting [14], 91 % of control.

Turning to `Cc1ccc(S(=O)(=O)OCC2C(COS(=O)(=O)c3ccc(C)cc3)C3CCC2C3C(c2ccccc2)c2ccccc2)cc1` (stereo unspecified), the T/C is 103 % of control (dose: 100.0 mg/kg/injection, schedule: Q01DX009 (ip), vehicle: Klucel (hydroxypropylcellulose) (HPC)); 98 % of control under setting [16]; 94 % of control (dose: 200.0 mg/kg/injection, schedule: Q01DX009 (ip), vehicle: Klucel (hydroxypropylcellulose) (HPC)); 102 % of control under setting [17]; 111 % of control (dose: 400.0 mg/kg/injection, schedule: Q01DX009 (ip), vehicle: Klucel (hydroxypropylcellulose) (HPC)); 96 % of control (dose: 400.0 mg/kg/injection, schedule: Q04DX003 (ip), vehicle: Klucel (hydroxypropylcellulose) (HPC)).

`CC1(C)N=C(N)N=C(N)N1c1ccc(OCCCCNC(=O)Nc2cccc(S(=O)(=O)F)c2)c(Cl)c1`: the T/C was 100 % of control (dose: 25.0 mg/kg/injection, schedule: Q01DX009 (ip), vehicle: saline with Tween-80); 108 % of control under setting [1]; 116 % of control under setting [3].

For the origin of these results see PubChem BioAssay AID248 (DTP/NCI, 2004).
